# Source: publication PMC10810011 (Expert opinion on drug delivery, 2023)
# Assays:
# 5-HT1A = 5-HT1A (Homo sapiens, UniProt P08908); assay: InVEST radioligand filter binding, 5-HT1A; conditions: M13 20 μM, 100 = no effect
# Opioid mu = Opioid mu (Homo sapiens, UniProt P35372); assay: InVEST radioligand filter binding, Opioid mu; conditions: M13 20 μM, 100 = no effect
# pKa determination = assay type: physicochemical; conditions: UV metric at pH 2–12
# CCK = molecular target: T1, CCK (Homo sapiens, UniProt P32238); assay: InVEST radioligand filter binding, CCK; conditions: CCK, M13 20 μM, 100 = no effect
# T1 sequence (P32238 1-428): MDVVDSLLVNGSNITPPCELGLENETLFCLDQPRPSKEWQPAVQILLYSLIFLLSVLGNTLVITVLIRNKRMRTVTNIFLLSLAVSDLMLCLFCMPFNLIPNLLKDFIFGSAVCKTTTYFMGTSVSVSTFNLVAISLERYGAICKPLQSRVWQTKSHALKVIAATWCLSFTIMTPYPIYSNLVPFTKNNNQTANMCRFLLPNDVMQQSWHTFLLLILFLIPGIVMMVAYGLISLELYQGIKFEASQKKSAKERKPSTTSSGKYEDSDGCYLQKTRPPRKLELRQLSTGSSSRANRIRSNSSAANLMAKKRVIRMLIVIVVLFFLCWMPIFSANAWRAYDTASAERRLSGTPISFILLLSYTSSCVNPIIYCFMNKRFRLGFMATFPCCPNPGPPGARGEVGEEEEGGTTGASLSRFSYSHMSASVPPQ
# HCT-116 cells = assay: MTT cytotoxicity, 2D HCT-116; assay type: cell-based, human; conditions: 24 h
# 5-HT1B = 5-HT1B (Homo sapiens, UniProt P28222); assay: InVEST radioligand filter binding, 5-HT1B; conditions: 5-HT1B, M13 20 μM, 100 = no effect
# Thrombin alpha = Thrombin alpha (Homo sapiens, UniProt P00734); assay: InVEST enzymatic activity, Thrombin alpha; assay type: biochemical; conditions: M13 20 μM, 100 = no effect
# Opioid delta = Opioid delta (Homo sapiens, UniProt P41143); conditions: M13 20 μM, 100 = no effect
# Chain of Opioid delta (P41143 whole entry): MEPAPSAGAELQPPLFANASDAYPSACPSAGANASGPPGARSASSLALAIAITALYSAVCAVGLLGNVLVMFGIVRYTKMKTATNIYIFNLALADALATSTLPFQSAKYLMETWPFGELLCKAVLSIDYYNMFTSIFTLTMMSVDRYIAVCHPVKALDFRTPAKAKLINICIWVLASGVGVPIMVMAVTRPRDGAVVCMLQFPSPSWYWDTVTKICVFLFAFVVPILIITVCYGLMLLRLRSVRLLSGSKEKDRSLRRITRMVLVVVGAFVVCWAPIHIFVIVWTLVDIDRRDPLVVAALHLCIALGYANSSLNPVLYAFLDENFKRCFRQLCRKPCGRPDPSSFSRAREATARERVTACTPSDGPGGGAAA
# A2A adenosine = A2A adenosine (Homo sapiens, UniProt P29274); conditions: M13 20 μM, 100 = no effect
# Chain of A2A adenosine (P29274 whole entry): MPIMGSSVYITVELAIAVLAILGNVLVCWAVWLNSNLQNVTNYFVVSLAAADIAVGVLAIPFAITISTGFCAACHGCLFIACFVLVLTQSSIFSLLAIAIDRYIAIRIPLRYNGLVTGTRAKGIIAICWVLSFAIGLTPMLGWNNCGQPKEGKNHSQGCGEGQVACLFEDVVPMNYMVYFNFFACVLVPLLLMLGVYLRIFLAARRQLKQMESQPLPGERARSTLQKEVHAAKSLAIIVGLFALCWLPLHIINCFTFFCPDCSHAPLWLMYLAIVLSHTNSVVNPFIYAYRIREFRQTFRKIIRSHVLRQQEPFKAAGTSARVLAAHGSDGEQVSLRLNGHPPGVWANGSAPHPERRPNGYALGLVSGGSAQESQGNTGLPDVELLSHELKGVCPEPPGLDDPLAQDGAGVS
# Caco-2/BBe cells [1] = assay: MTT cytotoxicity, 2D Caco-2/BBe; conditions: 24 h
# PDE4A = PDE4A (Homo sapiens, UniProt P27815); assay: InVEST enzymatic activity, PDE4A; assay type: biochemical; conditions: M13 20 μM, 100 = no effect
# Chain of PDE4A (P27815 whole entry): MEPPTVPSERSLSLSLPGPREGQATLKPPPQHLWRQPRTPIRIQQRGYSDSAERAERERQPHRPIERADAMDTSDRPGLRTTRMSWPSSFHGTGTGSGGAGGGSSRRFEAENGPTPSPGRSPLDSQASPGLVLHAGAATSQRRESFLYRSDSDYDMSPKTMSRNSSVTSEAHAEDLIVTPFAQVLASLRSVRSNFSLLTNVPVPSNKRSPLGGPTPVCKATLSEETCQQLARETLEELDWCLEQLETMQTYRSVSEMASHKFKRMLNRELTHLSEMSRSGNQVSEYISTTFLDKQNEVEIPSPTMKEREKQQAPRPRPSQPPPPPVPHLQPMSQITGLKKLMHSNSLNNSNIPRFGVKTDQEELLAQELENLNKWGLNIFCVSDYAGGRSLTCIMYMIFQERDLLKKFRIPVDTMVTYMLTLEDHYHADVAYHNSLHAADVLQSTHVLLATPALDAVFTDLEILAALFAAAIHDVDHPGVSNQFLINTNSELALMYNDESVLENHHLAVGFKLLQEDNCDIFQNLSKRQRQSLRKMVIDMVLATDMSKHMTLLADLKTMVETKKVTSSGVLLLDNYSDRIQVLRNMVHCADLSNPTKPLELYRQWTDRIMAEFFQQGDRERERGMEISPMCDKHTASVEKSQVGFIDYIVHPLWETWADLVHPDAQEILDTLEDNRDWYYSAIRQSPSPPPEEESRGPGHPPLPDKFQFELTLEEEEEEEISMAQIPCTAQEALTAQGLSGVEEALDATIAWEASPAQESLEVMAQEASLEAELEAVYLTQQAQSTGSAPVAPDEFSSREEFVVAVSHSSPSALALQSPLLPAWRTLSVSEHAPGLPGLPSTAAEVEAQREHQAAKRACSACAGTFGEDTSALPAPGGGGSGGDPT
# Caco-2/BBe cells [2] = assay: Cell cycle control phospho-antibody array; assay type: cell-based, human; conditions: 24 h, p < 0.01
# D2S dopamine = D2S dopamine (Homo sapiens, UniProt P14416); assay: InVEST radioligand filter binding, D2S dopamine; conditions: M13 20 μM, 100 = no effect
# [3] = tested on: HC-CSC (human colon cancer stem cells); assay: MTT cytotoxicity, 2D HC-CSC; assay type: cell-based; conditions: 24 h
# Thermodynamic = assay type: physicochemical; conditions: pure water, room temperature, 24 h
# AHR-activation = molecular target: T2, AHR-activation (Homo sapiens, UniProt P35869); assay: InVEST fluorescence polarization binding/cell-based activity, AHR-activation; conditions: M13 20 μM, 100 = no effect
# T2 sequence (P35869 11-848): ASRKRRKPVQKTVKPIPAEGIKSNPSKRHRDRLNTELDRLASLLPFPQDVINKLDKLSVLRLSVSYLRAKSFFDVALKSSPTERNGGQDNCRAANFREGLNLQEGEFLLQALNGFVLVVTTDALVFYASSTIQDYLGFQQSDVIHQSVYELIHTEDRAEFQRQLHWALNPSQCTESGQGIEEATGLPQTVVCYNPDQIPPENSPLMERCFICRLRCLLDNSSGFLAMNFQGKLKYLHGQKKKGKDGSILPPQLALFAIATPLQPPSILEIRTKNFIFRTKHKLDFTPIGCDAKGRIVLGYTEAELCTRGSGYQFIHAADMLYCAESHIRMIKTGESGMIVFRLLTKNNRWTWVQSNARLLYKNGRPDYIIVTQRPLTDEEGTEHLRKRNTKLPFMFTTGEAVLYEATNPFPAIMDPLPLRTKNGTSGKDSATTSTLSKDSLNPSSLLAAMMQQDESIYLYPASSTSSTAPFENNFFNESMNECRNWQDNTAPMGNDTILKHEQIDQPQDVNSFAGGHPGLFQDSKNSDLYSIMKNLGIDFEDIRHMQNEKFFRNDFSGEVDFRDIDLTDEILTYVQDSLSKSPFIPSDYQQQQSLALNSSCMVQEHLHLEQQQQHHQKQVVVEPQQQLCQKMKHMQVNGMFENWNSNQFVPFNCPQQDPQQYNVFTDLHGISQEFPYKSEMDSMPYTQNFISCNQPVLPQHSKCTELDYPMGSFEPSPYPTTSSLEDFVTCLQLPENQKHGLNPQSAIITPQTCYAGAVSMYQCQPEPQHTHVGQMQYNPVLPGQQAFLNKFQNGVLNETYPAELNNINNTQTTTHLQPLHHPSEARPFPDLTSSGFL
# D1 dopamine = D1 dopamine (Homo sapiens, UniProt P21728); conditions: M13 20 μM, 100 = no effect
# Chain of D1 dopamine (P21728 whole entry): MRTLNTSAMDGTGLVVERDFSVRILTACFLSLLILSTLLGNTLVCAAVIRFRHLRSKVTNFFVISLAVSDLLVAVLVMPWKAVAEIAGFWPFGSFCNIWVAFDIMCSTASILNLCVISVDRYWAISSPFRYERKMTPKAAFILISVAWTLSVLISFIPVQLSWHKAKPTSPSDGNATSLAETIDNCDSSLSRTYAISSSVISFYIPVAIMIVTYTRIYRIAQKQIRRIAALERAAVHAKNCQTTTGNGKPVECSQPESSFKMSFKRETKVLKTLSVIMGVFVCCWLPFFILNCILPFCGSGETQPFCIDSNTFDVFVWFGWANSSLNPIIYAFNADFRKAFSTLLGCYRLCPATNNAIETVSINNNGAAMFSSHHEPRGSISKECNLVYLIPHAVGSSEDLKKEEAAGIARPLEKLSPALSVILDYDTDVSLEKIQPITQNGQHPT
# D3 dopamine = D3 dopamine (Homo sapiens, UniProt P35462); assay: InVEST radioligand filter binding, D3 dopamine; conditions: M13 20 μM, 100 = no effect
# Chain of D3 dopamine (P35462 whole entry): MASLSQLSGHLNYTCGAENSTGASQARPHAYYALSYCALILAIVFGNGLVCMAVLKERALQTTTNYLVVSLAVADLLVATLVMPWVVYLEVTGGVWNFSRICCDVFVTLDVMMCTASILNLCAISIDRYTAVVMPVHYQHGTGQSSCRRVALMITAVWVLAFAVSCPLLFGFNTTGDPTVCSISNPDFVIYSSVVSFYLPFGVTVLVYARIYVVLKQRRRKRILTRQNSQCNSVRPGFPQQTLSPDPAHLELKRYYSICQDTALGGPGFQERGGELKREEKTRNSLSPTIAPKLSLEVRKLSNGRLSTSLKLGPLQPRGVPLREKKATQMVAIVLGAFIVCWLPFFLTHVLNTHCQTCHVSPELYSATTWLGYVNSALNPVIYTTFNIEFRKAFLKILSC
# Muscarinic M1 = Muscarinic M1 (Homo sapiens, UniProt P11229); assay type: binding; conditions: M13 20 μM, 100 = no effect
# Chain of Muscarinic M1 (P11229 whole entry): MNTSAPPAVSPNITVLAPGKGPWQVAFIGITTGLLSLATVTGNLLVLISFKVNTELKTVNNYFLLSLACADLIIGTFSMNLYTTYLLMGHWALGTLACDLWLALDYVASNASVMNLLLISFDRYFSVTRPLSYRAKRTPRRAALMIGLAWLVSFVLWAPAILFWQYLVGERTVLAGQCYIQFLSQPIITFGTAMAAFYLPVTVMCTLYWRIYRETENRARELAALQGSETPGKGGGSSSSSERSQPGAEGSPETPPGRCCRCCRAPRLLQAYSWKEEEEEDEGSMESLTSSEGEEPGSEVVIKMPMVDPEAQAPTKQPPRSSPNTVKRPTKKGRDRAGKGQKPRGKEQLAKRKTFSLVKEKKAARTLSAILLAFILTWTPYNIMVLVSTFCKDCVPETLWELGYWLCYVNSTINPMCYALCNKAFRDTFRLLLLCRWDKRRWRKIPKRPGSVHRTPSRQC
# [4] = Metabolic stability with mouse intestinal microsomes; conditions: 30 min incubation, HPLC
# PDE3A = PDE3A (Homo sapiens, UniProt Q14432); assay: InVEST enzymatic activity, PDE3A; assay type: biochemical; conditions: M13 20 μM, 100 = no effect
# Chain of PDE3A (Q14432 whole entry): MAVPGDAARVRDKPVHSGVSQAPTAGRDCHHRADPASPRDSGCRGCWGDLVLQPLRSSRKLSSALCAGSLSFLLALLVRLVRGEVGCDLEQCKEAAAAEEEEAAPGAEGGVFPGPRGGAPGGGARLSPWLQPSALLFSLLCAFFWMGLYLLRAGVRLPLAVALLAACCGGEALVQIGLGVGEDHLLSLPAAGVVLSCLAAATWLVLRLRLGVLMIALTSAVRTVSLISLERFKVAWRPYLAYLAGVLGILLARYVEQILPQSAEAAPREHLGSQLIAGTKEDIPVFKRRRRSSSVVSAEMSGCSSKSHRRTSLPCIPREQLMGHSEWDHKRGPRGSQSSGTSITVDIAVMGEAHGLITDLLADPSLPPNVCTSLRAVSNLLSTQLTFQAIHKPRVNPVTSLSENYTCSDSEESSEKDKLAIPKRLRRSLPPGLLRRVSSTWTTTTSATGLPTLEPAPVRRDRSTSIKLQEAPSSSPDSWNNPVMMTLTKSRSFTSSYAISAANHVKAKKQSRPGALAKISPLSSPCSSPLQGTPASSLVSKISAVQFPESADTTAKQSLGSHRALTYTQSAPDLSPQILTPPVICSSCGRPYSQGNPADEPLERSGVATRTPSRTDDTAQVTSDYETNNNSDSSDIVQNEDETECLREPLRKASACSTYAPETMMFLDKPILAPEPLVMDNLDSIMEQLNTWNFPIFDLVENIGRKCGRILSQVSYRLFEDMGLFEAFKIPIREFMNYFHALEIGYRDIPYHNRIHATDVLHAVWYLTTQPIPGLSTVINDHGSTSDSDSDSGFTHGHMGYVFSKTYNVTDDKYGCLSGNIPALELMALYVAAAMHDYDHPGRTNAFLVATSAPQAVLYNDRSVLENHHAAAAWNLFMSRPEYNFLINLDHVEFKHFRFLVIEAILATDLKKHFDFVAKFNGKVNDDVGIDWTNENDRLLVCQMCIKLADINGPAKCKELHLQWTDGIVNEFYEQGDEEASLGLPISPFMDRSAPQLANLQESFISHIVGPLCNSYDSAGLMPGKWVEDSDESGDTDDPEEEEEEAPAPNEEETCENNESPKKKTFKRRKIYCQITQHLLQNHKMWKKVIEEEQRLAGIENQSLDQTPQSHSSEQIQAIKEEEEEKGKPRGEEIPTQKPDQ
# [5] = Kinetic solubility in pure water; assay type: physicochemical; conditions: room temperature, 24 h
# Chain of Opioid mu (P35372 whole entry): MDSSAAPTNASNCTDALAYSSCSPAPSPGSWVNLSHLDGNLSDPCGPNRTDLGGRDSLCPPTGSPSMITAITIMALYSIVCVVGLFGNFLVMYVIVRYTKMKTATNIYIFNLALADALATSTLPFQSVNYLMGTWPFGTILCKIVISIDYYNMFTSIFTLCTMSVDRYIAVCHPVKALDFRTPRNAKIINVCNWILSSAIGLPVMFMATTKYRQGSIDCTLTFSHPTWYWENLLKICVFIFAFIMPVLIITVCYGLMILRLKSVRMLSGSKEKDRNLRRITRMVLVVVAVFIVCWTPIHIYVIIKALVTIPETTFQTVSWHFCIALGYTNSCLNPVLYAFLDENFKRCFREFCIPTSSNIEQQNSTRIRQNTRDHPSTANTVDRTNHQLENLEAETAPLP
# Chain of 5-HT1A (P08908 whole entry): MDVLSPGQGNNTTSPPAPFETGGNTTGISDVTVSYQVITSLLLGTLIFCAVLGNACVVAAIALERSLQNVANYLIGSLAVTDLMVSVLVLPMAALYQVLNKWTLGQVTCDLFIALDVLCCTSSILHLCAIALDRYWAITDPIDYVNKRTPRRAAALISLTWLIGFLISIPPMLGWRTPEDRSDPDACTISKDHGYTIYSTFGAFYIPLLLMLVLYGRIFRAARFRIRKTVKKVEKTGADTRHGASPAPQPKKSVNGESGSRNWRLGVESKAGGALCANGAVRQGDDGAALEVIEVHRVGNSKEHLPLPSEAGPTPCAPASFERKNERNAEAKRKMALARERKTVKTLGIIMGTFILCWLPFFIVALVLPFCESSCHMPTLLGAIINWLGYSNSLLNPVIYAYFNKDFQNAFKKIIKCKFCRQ
smiles,measurement,setting,value
"CCCCCC(CC(=O)CCc1ccc(O)c(OC)c1)SC[C@H](NC(=O)CC[C@H](N)C(=O)O)C(=O)NCC(=O)O (stereo partly drawn) [M13, 5-glutathione-6-shogaol]",% Activity Data 1,5-HT1A; repetition 1,102%
same,% Activity Data 2,5-HT1A; repetition 2,100%
same,% Activity Data 1,Opioid mu; repetition 1,98%
same,% Activity Data 2,Opioid mu; repetition 2,96%
same,pKa1,pKa determination,3.24
same,pKa2,pKa determination,9.12
same,pKa3,pKa determination,10.42
same,% Activity Data 1,CCK; repetition 1,94%
same,% Activity Data 2,CCK; repetition 2,92%
same,IC50,"HCT-116 cells; HCT-116, MTT",40.1 µM
same,fold by which IC50 against HIEC-6 is higher than against HCT-116,HCT-116 cells; MTT,2.5 fold
same,% Activity Data 1,5-HT1B; repetition 1,100%
same,% Activity Data 2,5-HT1B; repetition 2,102%
same,% Activity Data 1,Thrombin alpha; repetition 1,96%
same,% Activity Data 2,Thrombin alpha; repetition 2,97%
same,% Activity Data 1,Opioid delta; repetition 1,98%
same,% Activity Data 2,Opioid delta; repetition 2,104%
same,% Activity Data 1,A2A adenosine; repetition 1,99%
same,% Activity Data 2,A2A adenosine; repetition 2,100%
same,fold by which IC50 against HIEC-6 is higher than against Caco-2/BBe,Caco-2/BBe cells [1],6 fold
same,IC50,Caco-2/BBe cells [1]; Caco-2/BBe,16.7 µM
same,% Activity Data 1,PDE4A; repetition 1,93%
same,% Activity Data 2,PDE4A; repetition 2,94%
same,CDC25A expression compared with the control and NL groups,Caco-2/BBe cells [2],down-regulated
same,phosphorylated CDC25A (p-CDC25A) compared with the control and NL groups,Caco-2/BBe cells [2],down-regulated
same,% Activity Data 1,D2S dopamine; repetition 1,106%
same,% Activity Data 2,D2S dopamine; repetition 2,89%
same,fold by which IC50 against HIEC-6 is higher than against HC-CSC,[3],5.8 fold
same,IC50,[3]; HC-CSC,17.4 µM
same,thermodynamic (or equilibrium) solubility,Thermodynamic,1390.03 µM
same,% Activity Data 1,AHR-activation; repetition 1,100%
same,% Activity Data 2,AHR-activation; repetition 2,101%
same,% Activity Data 1,D1 dopamine; repetition 1,100%
same,% Activity Data 2,D1 dopamine; repetition 2,116%
same,% Activity Data 1,D3 dopamine; repetition 1,96%
same,% Activity Data 2,D3 dopamine; repetition 2,100%
same,% Activity Data 1,Muscarinic M1; repetition 1,111%
same,% Activity Data 2,Muscarinic M1; repetition 2,113%
same,% of the input retained after incubation with mouse intestinal microsomes,[4],86%
same,% Activity Data 1,PDE3A; repetition 1,93%
same,% Activity Data 2,PDE3A; repetition 2,94%
same,kinetic solubility,[5],> 200 µM
